Test results reported in patent US11311498B2, “Use of cannabinoids in the treatment of epilepsy” (GW Pharma Limited, priority 2014, dated 2022).

Columns and labels:
seizures [1] = conditions: twelve institutionalized adult patients; 200 mg/day pure CBD; open label; cited from earlier work
absence seizures = experiment: Expanded access program: absence seizures in children and young adults with treatment-resistant epilepsy; assay type: in vivo, human; conditions: 12 weeks of treatment vs 4-week baseline; n = 28; CBD 5 up to 25 mg/kg/day added to baseline AED
Method: (§1) The terms “50% responder” and “50% reduction in seizure” are both terms used in clinical studies. In the present application the terms define the percentage of subjects that experienced a greater than or equal to 50% reduction in the number of seizures during treatment with CBD in comparison to the number experienced during the baseline period before the CBD was administered.
(§2) Of 137 children and young adults with severe, childhood onset treatment-resistant epilepsy (TRE), forty-two suffered from epilepsy that was characterised by absence seizures. These subjects were tested with a highly purified extract of cannabidiol (CBD) obtained from a cannabis plant. All subjects presented with absence type seizures, often in addition to other generalised and/or focal seizures. The participants in the study were part of an expanded access compassionate use program for CBD.
The epileptic syndromes that these patients suffered from were as follows: Lennox-Gastaut Syndrome; Myoclonic Absence Epilepsy; Tuberous Sclerosis Complex; Dravet Syndrome; Doose Syndrome; Jeavons Syndrome; CDKL5; Dup15q; Neuronal ceroid lipofuscinoses (NCL) and brain abnormalities. […]

[2] = tested on: myoclonic absence seizures; experiment: Expanded access program: myoclonic absence seizures in children and young adults with treatment-resistant epilepsy; assay type: in vivo, human; conditions: 12 weeks of treatment vs 4-week baseline; head n = 10; CBD 5 up to 25 mg/kg/day added to baseline AED
Method: as §1
as §2, with “epilepsy (TRE), ten suffered from” for “epilepsy (TRE), forty-two suffered from”, “characterised by myoclonic absence seizures.” for “characterised by absence seizures.”, “presented with myoclonic absence type” for “presented with absence type”
The epileptic syndromes that these patients suffered from were as follows: Myoclonic Absence Epilepsy; Doose Syndrome; and epilepsy of unknown cause.
(§3) All patients entered a baseline period of 4 weeks when parents/caregivers kept prospective seizure diaries, noting all countable seizure types.
The patients then received a highly purified CBD extract (greater than 98% CBD w/w) in sesame oil, of known and constant composition, at a dose of 5 mg/kg/day in addition to their baseline anti-epileptic drug (AED) regimen. […]

seizures [3] = conditions: of eight adult patients with generalized epilepsy; cited from earlier work
[4] = Solubility of the drug substance in water; assay type: physicochemical
Description: Sesame oil was selected as an excipient to solubilize the drug substance.

seizures in mice = conditions: after pro-convulsant drugs or an electric current; cited from earlier work
seizures [5] = conditions: previous studies in animals; multiple species and models; cited from earlier work
seizures [6] = conditions: 200 mg/day pure CBD, cited from earlier work
total seizures = experiment: Expanded access program: total seizures in all subjects treated; assay type: in vivo, human; conditions: 12 weeks of treatment, n = 137
Method: as §1, §2, §3
The patients then received a highly purified CBD extract (greater than 98% CBD w/w) in sesame oil, of known and constant composition, at a dose of 5 mg/kg/day in addition to their baseline anti-epileptic drug (AED) regimen.
Laboratory testing for hematologic, liver, kidney function, and concomitant AED levels was performed at baseline, and after every 4 weeks of CBD therapy.

seizures [7] = conditions: Consroe et al., 1977; cited from earlier work

Row | Structure (SMILES) | control of seizures (seizures [1]) | <50% reduction in seizures, absence seizures (proportion of patients) (absence seizures) | <50% reduction in seizures, myoclonic absence seizures (proportion of patients) [2] | patients with marked reduction of seizures (seizures [3]) | solubility in water [4] | prevention of seizures (seizures in mice) | anticonvulsant efficacy (seizures [5]) | patients who became seizure free (seizures [6]; of four adult patients) | seizure frequency in the remainder of patients (seizures [6]; remaining two of four adult patients) | <50% reduction in seizures, total seizures (proportion of patients) (total seizures) | effect on convulsions (seizures [7])
1 | C=C(C)[C@@H]1CCC(C)=C[C@H]1c1c(O)cc(CCCCC)cc1O [CBD, Cannabidiol] | ineffective in controlling seizures | 36% (n = 10) | 25% (n = 2) | 4 | insoluble in water | able to prevent seizures | has anticonvulsant efficacy in multiple species and models | two | unchanged | 54% (n = 74) | –
2 | CCCCCc1cc(O)c2c(c1)OC(C)(C)[C@@H]1CCC(C)=C[C@@H]21 [THC, Tetrahydrocannabinol] | – | – | – | – | – | – | – | – | – | – | pro-convulsant
